Test results taken from patent EP3594336A1, “TREATMENT OF DOWN SYNDROME” (Université de Strasbourg, priority 2018, dated 2020).

Tests used:
[1] = test system: yeast cells overexpressing Cys4; experiment: Drug screening in yeast: suppression of methionine auxotrophy (halo of restored growth around filter); type: cell-based, Saccharomyces cerevisiae; conditions: same plate assay; high concentrations = close to the filter
Description: As an example, for the drug screening, yeast cells transformed with p424-GPD and p426-GPD plasmids containing yeast CBS (CYS4) coding sequence were grown in uracil- and tryptophan-free minimal liquid medium (SD-Ura/Trp) overnight at 29°C. The following day, cells were diluted to OD600∼0.2 in fresh medium and grown for 4 hours to reach exponential phase. Then three hundred and fifty microliters of exponentially growing yeast cells overexpressing CYS4, adjusted to an OD600 of 0.5, were spread homogeneously with sterile glass beads (a mix of ∼1.5 and 3 mm diameter) on a square Petri dish (12 cm × 12cm) containing uracil-, tryptophan- and methionine-free minimal agar-based solid medium (SD-UrarTrp/Met). In addition, to get a degree of methionine auxotrophy sufficient to allow an efficient screening, the screening medium was supplemented with serine (2% (w/v)), which is one of CYS4/CBS substrates. Sterile filters (Thermo Fisher similar to those used for antibiograms) were placed on the agar surface, and 2 µl of individual compound from the various chemical libraries were applied to each filter. […]
According to the present invention, it was decided to create a yeast model in which the phenotypical consequences of CBS overexpression may be easily and conveniently monitored in order to get a potential in cellulo high throughput drug screening procedure. […]

DYRK1A = conditions: treatment with EGCG, as reported previously; cited from earlier work

Row | Structure (SMILES) | toxicity on CYS4-overexpressing cells [1] | cognitive aspects found altered in people with DS (DYRK1A)
1 | CCN(CC)C(=S)SSC(=S)N(CC)CC [DSF, Disulfiram] | toxic at high concentrations | –
2 | O=C(O[C@@H]1Cc2c(O)cc(O)cc2O[C@@H]1c1cc(O)c(O)c(O)c1)c1cc(O)c(O)c(O)c1 [epigallocatechin-3-gallate] | – | can restore some cognitive aspects found altered in people with DS but the gain was limited
